The text below walks through data of patent US11084808B2, “Oxopicolinamide derivative, preparation method therefor and pharmaceutical use thereof” (Jiangsu Hengrui Medicine Co., Ltd., priority 2016, dated 2021).

The test system of the first test is human blood. As to the kind of experiment: In vitro anticoagulant effect on human blood (APTT, CT2). The test is classed as biochemical. The settings on record: Table 2; concentration of the compound corresponding to 2 times the APTT of the blank control; human plasma. How it is done:
Test Example 2: Determination of In Vitro Anticoagulant Effect of the Compounds of the Present Invention on Human Blood
1. Experimental Materials
Plasma: Human blood was collected in blood collection tubes containing no anticoagulant, and then 3.8% sodium citrate (volume ratio 1:9) was added. The tubes were centrifuged at 2500 rpm for 10 minutes at room temperature, and then the plasma was collected and stored at −80° C.:
Reagents: APTT reagent (Activated partial thromboplastin time assay kit, SIEMENS, Art. No. B4218-1), calcium chloride solution;
Instrument: Coagulation instrument (SYSMEX, CA-500).
The divided plasma was melted at room temperature and mixed well. 10000 μM the test compound dissolved in 100% DMSO was diluted to 3000, 300, 200, 150, 75, 30, 10, 3, 0.3 μM with 100% DMSO, and the blank was 100% DMSO. The reagent, plasma, and compound were placed in corresponding positions in the coagulation instrument, and APTT detection of the compound was carried out.
Curve fitting was carried out by graphpad and CT2 was calculated, i.e., the concentration of the compound corresponding to 2 times the APTT of the blank control.
For `COc1cn([C@H](Cc2ccccn2)C(=O)Nc2ccc(C(=O)O)cc2)c(=O)cc1-c1cc(Cl)ccc1C(C)=O` [Example 81, (R)-4-(2-(4-(2-acetyl-5-chlorophenyl)-5-methoxy-2-oxopyridin-1(2H)-yl)-3-(pyridin-2-yl)propanamido)benzoic acid], the “CT2 (compound concentration doubling APTT)” value (“CT2” below) was more than 10000 µM.

For the compound `CCC(=O)c1ccc(Cl)cc1-c1cc(=O)n(C(Cc2ccn(C)n2)C(=O)Nc2ccc(C(=O)O)cc2)cc1OC` (stereo not shown) [Example 99, 4-(2-(4-(5-chloro-2-propionylphenyl)-5-methoxy-2-oxopyridin-1(2H)-yl)-3-(1-methyl-1H-pyrazol-3-yl)propanamido)benzoic acid], the “CT2” value came to 3.5 µM. With `COc1cn(C(Cc2ccn(C3CC3)n2)C(=O)Nc2ccc3nn(C)cc3c2)c(=O)cc1-c1cc(Cl)ccc1C(C)=O` (stereo not shown) [Example 97, 2-(4-(2-acetyl-5-chlorophenyl)-5-methoxy-2-oxopyridin-(2H)-yl)-3-(1-cyclopropyl-1H-pyrazol-3-yl)-N-(2-methyl-2H-indazol-5-yl)propanamide], the “CT2” value amounted to 5.4 µM. Same read-out and setting: next, `COc1cn([C@@H](Cc2ccccc2)C(=O)Nc2ccc(C(N)=O)cc2)c(=O)cc1-c1cc(Cl)ccc1C(C)=O` [Example 11, (S)-4-(2-(4-(2-acetyl-5-chlorophenyl)-5-methoxy-2-oxopyridin-1(2H)-yl)-3-phenylpropanamido)benzamide]: 4.2 µM; `[2H]C([2H])([2H])Oc1cn([C@H](CCOC(C)(C)C)C(=O)Nc2ccc(C(=O)O)cc2)c(=O)cc1-c1cc(Cl)ccc1C(=O)CC` [Example 178, 4-[[(2R)-4-tert-butoxy-2-[4-(5-chloro-2-propionyl-phenyl)-2-oxo-5-(trideuteromethoxy)-1-pyridyl]butyryl]amino]benzoic acid]: more than 10000 µM.

Turning to `COc1cn([C@@H](Cc2ccccn2)C(=O)Nc2ccc(C(N)=O)cc2)c(=O)cc1-c1cc(Cl)ccc1C(C)=O` [Example 85, (S)-4-(2-(4-(2-acetyl-5-chlorophenyl)-5-methoxy-2-oxopyridin-1(2H)-yl)-3-(pyridin-2-yl)propanamido)benzamide], the “CT2” value was found to be 6.5 µM. As to `COc1cn([C@H](Cc2cnn(C)c2)C(=O)Nc2ccc(C(=O)O)cc2)c(=O)cc1-c1cc(Cl)ccc1C(C)=O` [Example 104, (R)-4-(2-(4-(2-acetyl-5-chlorophenyl)-5-methoxy-2-oxopyridin-1(2H)-yl)-3-(1-methyl-1H-pyrazol-4-yl)propanamido)benzoic acid], the “CT2” value was more than 10000 µM.

With `COCC[C@@H](C(=O)Nc1ccc2[nH]c(C(=O)O)cc2c1)n1cc(OC)c(-c2cc(Cl)ccc2C(C)=O)cc1=O` [Example 2, (S)-5-(2-(4-(2-acetyl-5-chlorophenyl)-5-methoxy-2-oxopyridin-1(2H)-yl)-4-methoxybutanamido)-1H-indole-2-carboxylic acid], the “CT2” value is 2.9 µM. Still for that read-out and setting: next, `CNC(=O)c1ccc(NC(=O)[C@H](Cc2ccccc2)n2cc(OC)c(-c3cc(Cl)ccc3C(C)=O)cc2=O)cc1` [Example 13, (S)-4-(2-(4-(2-acetyl-5-chlorophenyl)-5-methoxy-2-oxopyridin-1(2H)-yl)-3-phenylpropanamido)-N-methylbenzamide]: 6.0 µM; `COCC[C@H](C(=O)Nc1ccc2[nH]c(C(=O)O)cc2c1)n1cc(OC)c(-c2cc(Cl)ccc2C(C)=O)cc1=O` [Example 3, (R)-5-(2-(4-(2-acetyl-5-chlorophenyl)-5-methoxy-2-oxopyridin-1(2H)-yl)-4-methoxybutanamido)-1H-indole-2-carboxylic acid]: more than 10000 µM.

As to `[2H]C([2H])([2H])Oc1cn([C@@H](Cc2ccccc2)C(=O)Nc2ccc(C(=O)O)cc2)c(=O)cc1-c1cc(Cl)ccc1C(C)=O` [Example 179, 4-[[(2S)-2-[4-(2-acetyl-5-chloro-phenyl)-2-oxo-5-(trideuteromethoxy)-1-pyridyl]-3-phenyl-propionyl]amino]benzoic acid], the “CT2” value was 3.3 µM. On the same count and under the same terms, next, `[2H]C([2H])([2H])C(=O)c1ccc(Cl)cc1-c1cc(=O)n([C@H](Cc2ccccc2)C(=O)Nc2ccc(C(=O)O)cc2)cc1OC` [Example 184, 4-[[(2R)-2-[4-[5-chloro-2-(2,2,2-trideuteroacetyl)phenyl]-5-methoxy-2-oxo-1-pyridyl]-3-phenyl-propionyl]amino]benzoic acid]: more than 10000 µM; `[2H]C([2H])([2H])C(=O)c1ccc(Cl)cc1-c1cc(=O)n([C@@H](Cc2ccccc2)C(=O)Nc2ccc(C(=O)O)cc2)cc1OC` [Example 183, 4-[[(2S)-2-[4-[5-chloro-2-(2,2,2-trideuteroacetyl)phenyl]-5-methoxy-2-oxo-1-pyridyl]-3-phenyl-propionyl]amino]benzoic acid]: 2.6 µM; `COc1cn([C@H](Cc2ccccc2)C(=O)Nc2ccc(C(=O)O)cc2)c(=O)cc1-c1cc(Cl)ccc1C(C)=O` [Example 6, (R)-4-(2-(4-(2-acetyl-5-chlorophenyl)-5-methoxy-2-oxopyridin-1(2H)-yl)-3-phenylpropanamido)benzoic acid]: more than 10000 µM. Take `CCC(=O)c1ccc(Cl)cc1-c1cc(=O)n([C@@H](CCOC(C)(C)C)C(=O)Nc2ccc(C(=O)O)cc2)cc1OC` [Example 108, (S)-4-(4-(tert-butoxy)-2-(4-(5-chloro-2-propionylphenyl)-5-methoxy-2-oxopyridin-1(2H)-yl)butanamido)benzoic acid]: the “CT2” value turned out to be 1.4 µM.

With `CCC(=O)c1ccc(Cl)cc1-c1cc(=O)n([C@@H](Cc2ccn(C3CC3)n2)C(=O)Nc2ccc(C(=O)O)cc2)cc1OC` [Example 92, (S)-4-(2-(4-(5-chloro-2-propionylphenyl)-5-methoxy-2-oxopyridin-1(2H)-yl)-3-(1-cyclopropyl-1H-pyrazol-3-yl)propanamido)benzoic acid], the “CT2” value was 1.2 µM. On to `COc1cn(C(Cc2ccn(C3CC3)n2)C(=O)Nc2ccc3nccnc3c2)c(=O)cc1-c1cc(Cl)ccc1C(C)=O` (stereo not shown) [Example 96, 2-(4-(2-acetyl-5-chlorophenyl)-5-methoxy-2-oxopyridin-1(2H)-yl)-3-(1-cyclopropyl-1H-pyrazol-3-yl)-N-(quinoxalin-6-yl)propanamide], for which the “CT2” value was found to be 6.7 µM. Same read-out and setting: then `CCC(=O)c1ccc(Cl)cc1-c1cc(=O)n([C@H](CCOC(C)(C)C)C(=O)Nc2ccc(C(=O)O)cc2)cc1OC` [Example 109, (R)-4-(4-(tert-butoxy)-2-(4-(5-chloro-2-propionylphenyl)-5-methoxy-2-oxopyridin-1(2H)-yl)butanamido)benzoic acid], with more than 10000 µM; and `COc1cn([C@H](CC2CCC2)C(=O)Nc2ccc(C(=O)O)cc2)c(=O)cc1-c1c(C(C)=O)ccc(Cl)c1F` [Example 160, (R)-4-(2-(4-(6-acetyl-3-chloro-2-fluorophenyl)-5-methoxy-2-oxopyridin-1(2H)-yl)-3-cyclobutylpropanamido)benzoic acid], with 3.8 µM. Take `COc1cn([C@@H](Cc2ccccc2)C(=O)Nc2ccc(C(=O)O)cc2)c(=O)cc1-c1c(C(C)=O)ccc(Cl)c1F` [Example 31, (S)-4-(2-(4-(6-acetyl-3-chloro-2-fluorophenyl)-5-methoxy-2-oxopyridin-1(2H)-yl)-3-phenylpropanamido)benzoic acid]: the “CT2” value stood at 8.5 µM.

For `COc1cn([C@@H](Cc2ccccc2)C(=O)Nc2ccc3nn(C)cc3c2)c(=O)cc1-c1cc(Cl)ccc1C(C)=O` [Example 20, (S)-2-(4-(2-acetyl-5-chlorophenyl)-5-methoxy-2-oxopyridin-1(2H)-yl)-N-(2-methyl-2H-indazol-5-yl)-3-phenylpropanamide], the “CT2” value was found to be 6.5 µM. For `COc1cn([C@@H](Cc2ccccc2)C(=O)Nc2ccc(C(=O)O)cc2)c(=O)cc1-c1cc(Cl)ccc1C(C)=O` [Example 5, (S)-4-(2-(4-(2-acetyl-5-chlorophenyl)-5-methoxy-2-oxopyridin-1(2H)-yl)-3-phenylpropanamido)benzoic acid], the “CT2” value is 2.0 µM. For `COc1cn(C(Cc2ccn(C3CC3)n2)C(=O)Nc2ccc3ncncc3c2)c(=O)cc1-c1cc(Cl)ccc1C(C)=O` (stereo not shown) [Example 98, 2-(4-(2-acetyl-5-chlorophenyl)-5-methoxy-2-oxopyridin-1(2H)-yl)-3-(1-cyclopropyl-1H-pyrazol-3-yl)-N-(quinazolin-6-yl)propanamide], the “CT2” value was found to be 7.6 µM. Regarding `CCC(=O)c1ccc(Cl)cc1-c1cc(=O)n(C(Cc2ccn(C3CC3)n2)C(=O)Nc2ccc(C(=O)O)cc2)cc1OC` (stereo not shown) [Example 91, 4-(2-(4-(5-chloro-2-propionylphenyl)-5-methoxy-2-oxopyridin-(2H)-yl)-3-(1-cyclopropyl-1H-pyrazol-3-yl)propanamido)benzoic acid], the “CT2” value was determined as 2.1 µM.

The test is the same for the next values; noted with them: Table 3 comparison with similar compounds in the published patents; human plasma.
Regarding `COc1cn([C@@H](CCOC(C)(C)C)C(=O)Nc2ccc3nccnc3c2)c(=O)cc1-c1cc(Cl)ccc1-c1nc(C)no1` [Comparative Example 2, (S)-4-(tert-butoxy)-2-(4-(5-chloro-2-(3-methyl-1,2,4-oxadiazol-5-yl)phenyl)-5-methoxy-2-oxopyridin-1 (2H)-yl)-N-(quinoxalin-6-yl)butanamide, reference compound], the “CT2” value was found to be 13.1 µM.
